# Test results as given in paper PMC12211128, “Safety, tolerability, pharmacokinetic and pharmacodynamic effects of the muscarinic M1 positive allosteric modulator VU0467319 for Alzheimer’s disease: a single ascending-dose study in healthy participants” (Alzheimer's Research & Therapy, 2025).
# Key:
# healthy participants [1] = assay: Vital signs; assay type: in vivo, human
# Procedure: Safety and tolerability were assessed throughout the study via treatment emergent adverse event (TEAE) monitoring, vital signs (blood pressure, pulse rate, respiration rate, oral temperature), physical examinations, 12-lead ECGs, and clinical laboratory parameters including complete blood count (CBC), coagulation, hematology, clinical chemistry assessments, and urinalysis. Safety laboratory tests were drawn at pre-dose and at 5, 24, 36 and 144-hours post-dose for 60–400 mg Cohorts; and at 24, 48, 72 and 144-hours post-dose for the 600 mg and Food Effect Cohort. […] All adverse events (AEs) were assessed by the investigator for severity and relationship to study medication or study procedures.
# All AEs were coded using the Medical Dictionary for Regulatory Activities (MedDRA) version 22.0. All AEs were listed, and the emergence of TEAEs were categorized by body system affected and analyzed to determine whether they were related to treatment. […] Assessment of the grade of toxicity or relation to the study drug for each adverse event was determined by the Investigator. […] Changes in vital signs from pre-dose to 48 h post-dose were placed into 10-time bins and assessed using mixed-measures ANOVA with the time bins as the within-subjects factor and dose as the between-subjects factor. […]
# healthy participants [2] = assay: Conner's Continuous Performance Task (CPT); assay type: in vivo, human; conditions: for CPT Commission Errors / CPT Hit Response Time / CPT Omission Errors / CPT Perseverations: mean (SD)
# Procedure: (§1) The Conner’s Continuous Performance Task (CPT; [32]) tested sustained attention to a target. Participants saw a string of letters appearing one at a time on a computer screen. Participants were asked to press the spacebar whenever the target stimulus (any letter except for the X) appeared. Participants were asked to withhold responding when a X was presented, which is the non-target stimulus. A set of 15 outcome measures derived from the task report were recorded as key variables. These measures include Hit RT, Hit Standard Error, Commission, Omission and Perseveration errors, Sensitivity, Response style, and the Hit standard error across different interstimulus intervals.
# Cognitive data: In this exploratory analysis, each outcome variable of the cognitive data was examined in a mixed model analysis of variance with one between-subjects factor of VU319 dose (0, 60, 120, 240, 400, 600 mg) and a within-subjects factor of testing session (pre-dose vs. post-dost administration). Post-hoc analysis compared each of the VU319 dose cohorts against the placebo group. Because the participants were healthy adults with normal cognitive function, we considered effects between no reductions in function to small improvement (d = 0.0–0.20) to be a positive result. For the food effect study, only the participants who received VU319 were examined due to the disproportionately small placebo group (n = 2). A within-subjects ANOVA including food condition (fasted/fed) and testing session (pre-dose vs. post-dose administration) was performed on each outcome variable.
# as §1, with “(Conners et al., 2000))” for “[32])”
# [3] = Food effect study 120 mg, Fasting, Post-Drug, n = 9
# [4] = Food effect study 120 mg, Fasting, Pre-Drug, n = 9
# [5] = Food effect study 120 mg, Fed, Post-Drug, n = 9
# [6] = Food effect study 120 mg, Fed, Pre-Drug, n = 9
smiles,measurement,setting,value
Cn1cc2c(-c3cc(F)c(CN4Cc5ncccc5C4=O)c(F)c3)cccc2n1 [VU319],vitals measurements over the first 48 h post-dose,healthy participants [1]; SAD study,no significant dose-by-time interactions
same,vitals measurements over the first 48 h post-dose,healthy participants [1]; food effect study,no significant dose-by-time interactions
same,"CPT Hit RT, 600 mg vs placebo, effect size d","healthy participants [2]; 600 mg, pre-dose to post-dose",1.48
same,"CPT Hit RT, pre- to post-dose change, mean difference vs placebo","healthy participants [2]; 600 mg, p = 0.012",-28.12
same,CPT Commission Errors,healthy participants [2]; [3],12.6 (6.62)
same,CPT Hit Response Time,healthy participants [2]; [3],387.85 (64.33) ms
same,CPT Omission Errors,healthy participants [2]; [3],4.33 (7.16)
same,CPT Perseverations,healthy participants [2]; [3],2.56 (6.93)
same,CPT Commission Errors,healthy participants [2]; [4],11.6 (5.68)
same,CPT Hit Response Time,healthy participants [2]; [4],395.78 (51.66) ms
same,CPT Omission Errors,healthy participants [2]; [4],4.56 (10.4)
same,CPT Perseverations,healthy participants [2]; [4],3.89 (11.7)
same,CPT Commission Errors,healthy participants [2]; [5],12.3 (6.2)
same,CPT Hit Response Time,healthy participants [2]; [5],381.1 (71.8) ms
same,CPT Omission Errors,healthy participants [2]; [5],2 (4.24)
same,CPT Perseverations,healthy participants [2]; [5],1.78 (2.44)
same,CPT Commission Errors,healthy participants [2]; [6],11.1 (5.58)
same,CPT Hit Response Time,healthy participants [2]; [6],381.6 (59.56) ms
same,CPT Omission Errors,healthy participants [2]; [6],1.22 (1.48)
same,CPT Perseverations,healthy participants [2]; [6],0.44 (1.01)
same,CPT Commission Errors,"healthy participants [2]; SAD study, 60 mg, Post-Drug",13.33 (4.37)
same,CPT Hit Response Time,"healthy participants [2]; SAD study, 60 mg, Post-Drug",407.08 (66.44) ms
same,CPT Omission Errors,"healthy participants [2]; SAD study, 60 mg, Post-Drug",3.33 (4.55)
same,CPT Perseverations,"healthy participants [2]; SAD study, 60 mg, Post-Drug",0 (0)
same,CPT Commission Errors,"healthy participants [2]; SAD study, 60 mg, Pre-Drug",12.83 (4.07)
same,CPT Hit Response Time,"healthy participants [2]; SAD study, 60 mg, Pre-Drug",393.27 (46.65) ms
same,CPT Omission Errors,"healthy participants [2]; SAD study, 60 mg, Pre-Drug",1 (1.27)
same,CPT Perseverations,"healthy participants [2]; SAD study, 60 mg, Pre-Drug",0.33 (0.52)
same,CPT Commission Errors,"healthy participants [2]; SAD study, 120 mg, Post-Drug",15.33 (5.92)
same,CPT Hit Response Time,"healthy participants [2]; SAD study, 120 mg, Post-Drug",356.2 (29.58) ms
same,CPT Omission Errors,"healthy participants [2]; SAD study, 120 mg, Post-Drug",4.67 (5.28)
same,CPT Perseverations,"healthy participants [2]; SAD study, 120 mg, Post-Drug",1.5 (1.98)
same,CPT Commission Errors,"healthy participants [2]; SAD study, 120 mg, Pre-Drug",15.5 (6.66)
same,CPT Hit Response Time,"healthy participants [2]; SAD study, 120 mg, Pre-Drug",361.23 (27.25) ms
same,CPT Omission Errors,"healthy participants [2]; SAD study, 120 mg, Pre-Drug",0.83 (0.75)
same,CPT Perseverations,"healthy participants [2]; SAD study, 120 mg, Pre-Drug",0 (0)
same,CPT Commission Errors,"healthy participants [2]; SAD study, 240 mg, Post-Drug",12 (1.55)
same,CPT Hit Response Time,"healthy participants [2]; SAD study, 240 mg, Post-Drug",372.94 (64.52) ms
same,CPT Omission Errors,"healthy participants [2]; SAD study, 240 mg, Post-Drug",2.33 (2.58)
same,CPT Perseverations,"healthy participants [2]; SAD study, 240 mg, Post-Drug",0.83 (1.6)
same,CPT Commission Errors,"healthy participants [2]; SAD study, 240 mg, Pre-Drug",11.33 (3.62)
same,CPT Hit Response Time,"healthy participants [2]; SAD study, 240 mg, Pre-Drug",372.21 (43.06) ms
same,CPT Omission Errors,"healthy participants [2]; SAD study, 240 mg, Pre-Drug",1 (1.27)
same,CPT Perseverations,"healthy participants [2]; SAD study, 240 mg, Pre-Drug",0.5 (1.23)
same,CPT Commission Errors,"healthy participants [2]; SAD study, 400 mg, Post-Drug",9.5 (3.08)
same,CPT Hit Response Time,"healthy participants [2]; SAD study, 400 mg, Post-Drug",365.85 (33.44) ms
same,CPT Omission Errors,"healthy participants [2]; SAD study, 400 mg, Post-Drug",1.67 (1.97)
same,CPT Perseverations,"healthy participants [2]; SAD study, 400 mg, Post-Drug",0.33 (0.82)
same,CPT Commission Errors,"healthy participants [2]; SAD study, 400 mg, Pre-Drug",10.33 (2.81)
same,CPT Hit Response Time,"healthy participants [2]; SAD study, 400 mg, Pre-Drug",374.41 (25.8) ms
same,CPT Omission Errors,"healthy participants [2]; SAD study, 400 mg, Pre-Drug",0.67 (1.2)
same,CPT Perseverations,"healthy participants [2]; SAD study, 400 mg, Pre-Drug",0.17 (0.41)
same,CPT Commission Errors,"healthy participants [2]; SAD study, 600 mg, Post-Drug",17 (8.49)
same,CPT Hit Response Time,"healthy participants [2]; SAD study, 600 mg, Post-Drug",356.18 (45.08) ms
same,CPT Omission Errors,"healthy participants [2]; SAD study, 600 mg, Post-Drug",1.5 (2.35)
same,CPT Perseverations,"healthy participants [2]; SAD study, 600 mg, Post-Drug",1.5 (3.21)
same,CPT Commission Errors,"healthy participants [2]; SAD study, 600 mg, Pre-Drug",13 (5.66)
same,CPT Hit Response Time,"healthy participants [2]; SAD study, 600 mg, Pre-Drug",387.39 (51.74) ms
same,CPT Omission Errors,"healthy participants [2]; SAD study, 600 mg, Pre-Drug",1.33 (3.27)
same,CPT Perseverations,"healthy participants [2]; SAD study, 600 mg, Pre-Drug",0.33 (0.82)
same,"CPT hit response time, dose by time interaction, effect size d","healthy participants [2]; SAD study, p = 0.063, faster following higher doses",1.19
same,"CPT, effects of food or time","healthy participants [2]; food effect study, 120 mg",no significant effects of food or time
